Measurements as given in patent publication US11168094B2, “Quinolinone derivative and pharmaceutical composition for preventing or treating allergic diseases such as asthma or atopic dermatitis including the quinolinone derivative as active ingredient” (Azcuris Co., Ltd., priority 2017, dated 2021).

What was measured:
IL-33 [1] = target: T1, IL-33 (Homo sapiens, UniProt O95760); experiment: Inhibition of IL-6 secretion by IL-33 inhibition in HMC-1 cells (IL-6 ELISA); format: cell-based; settings: HMC1, HMC-1 cells with IL-33, 24 h, negative values indicate increased IL-6 secretion
T1 sequence (O95760 95-270): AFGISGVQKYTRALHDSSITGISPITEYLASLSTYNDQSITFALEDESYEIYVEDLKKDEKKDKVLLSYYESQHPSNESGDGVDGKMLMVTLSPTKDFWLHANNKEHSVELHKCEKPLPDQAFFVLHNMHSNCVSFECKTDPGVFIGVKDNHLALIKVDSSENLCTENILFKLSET
Description: First, HMC-1, a human mast cell line, was cultured until an appropriate number of cells was maintained in a 96-well plate. Mixtures of IL-33 and different concentrations (0.3, 3, and 30 μM) of each of the inventive compounds were treated on cells, incubated at 37° C. for 24 h, and centrifuged. The supernatants were analyzed for IL-6 secretion using an IL-6 ELISA kit (Biolegend, USA).

TSLP-TSLPR interaction = target: T2, TSLP-TSLPR interaction (Homo sapiens, UniProt Q969D9); experiment: ELISA-based TSLP-TSLPR interaction assay; format: binding; settings: for inhibition at 100 µM: compound 0.1 mM; for inhibition at 100 µM / inhibition at 300 µM / inhibition at 1000 µM: FLAG-TSLP / TSLPR-His ELISA, OD 450 nm; for inhibition at 300 µM: compound 0.3 mM; for inhibition at 1000 µM: compound 1 mM
T2 construct: made in house
Description: To this end, home-made FLAG-TSLP protein and TSLPR-His protein were used to establish an ELISA-based TSLP-TSLPR interaction assay for measuring reactions with HRP. The inhibitory activities of the inventive compounds were evaluated by the interaction assay.
ELISA assay was conducted using an Ni-NTA HisSorb plate (Qiagen, Germany). 100 μL of a solution of TSLPR C-terminally tagged with hexahistidine (His) was dispensed into each well of the plate and incubated at room temperature for 2 h. After each well was washed twice with 200 μL of PBS and 0.05% Tween-20, 100 μL of a solution of each of the inventive compounds as a sample and 100 μL of TSLP N-terminally tagged with FLAG was dispensed into the well. After incubation at 4° C. overnight, each well was washed twice and treated with 100 μL of a blocking buffer (PBS-0.05% Tween 20 and 1% nonfat dry milk). The plate was washed twice, coated with 100 μL of a monoclonal anti-FLAG horseradish peroxidase antibody (Sigma-Aldrich Co., USA) for 2 h, and incubated at room temperature. Then, each well was washed 5 times, treated with 200 μL of a solution of o-phenylenediaminedihydrochloride (Sigma-Aldrich Co., USA), incubated for 30 min, and added with 1 N HCl.
Optical densities (ODs) were measured at 450 nm using a microplate spectrophotometer. The inhibitory effect of the compound on TSLP-TSLPR interaction was calculated using the following equation: Inhibition (inhibitory effect) (%)=(1−ODsample/ODcontrol)×100

[2] = tested on: HDM-induced allergic airway inflammation; experiment: House dust mite (HDM)-induced allergic airway inflammation mouse models; format: in vivo; settings: 200 μg intraperitoneal, BALB/c mice, day 11, vs untreated controls (FIG. 4 and 5)
Description: Splenocytes were isolated from DO11.10 mice and ˜1×10^6CD4T cells were transferred to pure BALB/c mice by intravenous injection. For 3 days from the next day, 100 μg of a mixture of HDM (Dermatophagoidesfarinae 50 μg, Dermatophagoidespteronyssinus 50 μg, Greer Laboratories, Inc., USA) and OVA (Sigma-Aldrich Co., USA) was administered intranasally to the mice. From day 2 after administration, the mice were treated with 200 μg of each of the inventive compounds or PBS (for control mice) three times daily through the intraperitoneal route. After the mice were euthanized on day 11, the numbers of total cells and eosinophils in the airways were checked. The treatment schedule with the Formula 5 (KB 1517) and Formula 10 (KB 1518) (200 μg each) in house dust mite (HDM)-induced allergic airway inflammation mouse models is shown in FIG. 8.

IL-33 [3] = target: T1, IL-33; experiment: Inhibition of IL-6 secretion by IL-33 inhibition in HMC-1 cells (IL-6 ELISA); format: cell-based; settings: HMC1, HMC-1 cells with IL-33, 24 h, negative values indicate increased IL-6 secretion; remark: listed apart in the source

Compound | inhibition at 3 µM (IL-33 [1]) | inhibition at 100 µM (TSLP-TSLPR interaction) | inhibition at 300 µM (TSLP-TSLPR interaction) | inhibition at 0.3 µM (IL-33 [1]) | inhibition at 0.03 µM (IL-33 [3]) | Inhibition (%) (TSLP-TSLPR interaction; 1 mg/mL FLAG tag-free TSLP as competitor) | inhibition at 1000 µM (TSLP-TSLPR interaction) | number of eosinophils in the airways [2] | number of total cells in the airways [2]
CN(C)CCn1c(=O)c2nc(-c3ccccc3)oc2c2ccccc21 [Compound 2, 5-(2-(dimethylamino)ethyl)-2-phenyloxazolo[4,5-c]quinolin-4(5H)-one] | -11.8% | 26.7% | 49% | – | – | – | 66.9% | – | –
CN(C)CCn1c(=O)c2nc(-c3ccc(F)cc3)oc2c2ccccc21 [Compound 3, 5-(2-(dimethylamino)ethyl)-2-(4-fluorophenyl)oxazolo[4,5-c]quinolin-4(5H)-one] | 29.8% | 17.7% | 27.5% | – | – | – | – | – | –
CN(C)CCn1c(=O)c2nc(-c3ccc(Cl)cc3)oc2c2ccccc21 [Compound 4, 2-(4-chlorophenyl)-5-(2-(dimethylamino)ethyl)oxazolo[4,5-c]quinolin-4(5H)-one] | 29.7% | 28.8% | 46.6% | 22.5% | – | – | – | – | –
CN(C)CCOc1nc2ccccc2c2oc(-c3ccccc3)nc12 [Compound 7, N,N-dimethyl-2-((2-phenyloxazolo[4,5-c]quinolin-4-yl)oxy)ethanamine] | 35.6% | 27.8% | 54.6% | – | – | – | 57.2% | – | –
FLAG tag-free TSLP: TSLP protein without FLAG tag, 1 mg/mL, competitor control in the TSLP-TSLPR ELISA [reference compound] | – | – | – | – | – | 40.7% | – | – | –

Continued, in another order:

inhibition at 3 µM (IL-33 [1]) | inhibition at 100 µM (TSLP-TSLPR interaction) | inhibition at 300 µM (TSLP-TSLPR interaction) | inhibition at 0.3 µM (IL-33 [1]) | inhibition at 0.03 µM (IL-33 [3]) | Inhibition (%) (TSLP-TSLPR interaction; 1 mg/mL FLAG tag-free TSLP as competitor) | Compound | inhibition at 1000 µM (TSLP-TSLPR interaction) | number of eosinophils in the airways [2] | number of total cells in the airways [2]
28.2% | 23.2% | 29.6% | 30.4% | – | – | CN(C)CCn1c(=O)c2nc(-c3ccc(C(F)(F)F)cc3)oc2c2ccccc21 [Compound 5, 5-(2-(dimethylamino)ethyl)-2-(4-(trifluoromethyl)phenyl)oxazolo[4,5-c]quinolin-4(5H)-one] | – | significantly reduced | significantly reduced
-57.8% | 25.8% | 54.7% | – | – | – | COc1ccc(-c2nc3c(=O)n(CCN(C)C)c4ccccc4c3o2)cc1 [Compound 6, 5-(2-(dimethylamino)ethyl)-2-(4-methoxyphenyl)oxazolo[4,5-c]quinolin-4(5H)-one] | – | – | –
51.3% | – | – | 49.3% | 32.7% | – | CN(C)CCOc1nc2ccccc2c2oc(-c3ccc(C(F)(F)F)cc3)nc12 [Compound 10, N,N-dimethyl-2-((2-(4-(trifluoromethyl)phenyl)oxazolo[4,5-c]quinolin-4-yl)oxy)ethanamine] | – | significantly reduced | significantly reduced
